# Reference: patent EP2140864A2 (H. Lundbeck A/S, priority 2001, dated 2002)
# Experiments:
# 5HT transporter = 5HT transporter (Rattus norvegicus, UniProt P31652); test: Binding at native 5HT transporter
# Description: The binding properties of the compounds of the present invention were evaluated at one or more cloned receptors or native, tissue-derived transporters, using protocols described below.
# The methods to determine binding affinity at native transporters are described in the following publications: 5HT transporter and NE transporter (Owens et al., 1997), and DA transporter (Javitch et al, 1984).
# (§1) Binding data were analyzed using nonlinear regression and statistical techniques available in the GraphPAD Prism package (San Diego, CA). Enzymatic assay data were derived from a standard curve of reference compound data.
# human α2A adrenoceptor = target: T1, human α2A adrenoceptor (Homo sapiens, UniProt P08913); test: Radioligand binding, α2A adrenergic receptor
# T1 construct: expressed in transfected cells
# T1 sequence (P08913 1-465): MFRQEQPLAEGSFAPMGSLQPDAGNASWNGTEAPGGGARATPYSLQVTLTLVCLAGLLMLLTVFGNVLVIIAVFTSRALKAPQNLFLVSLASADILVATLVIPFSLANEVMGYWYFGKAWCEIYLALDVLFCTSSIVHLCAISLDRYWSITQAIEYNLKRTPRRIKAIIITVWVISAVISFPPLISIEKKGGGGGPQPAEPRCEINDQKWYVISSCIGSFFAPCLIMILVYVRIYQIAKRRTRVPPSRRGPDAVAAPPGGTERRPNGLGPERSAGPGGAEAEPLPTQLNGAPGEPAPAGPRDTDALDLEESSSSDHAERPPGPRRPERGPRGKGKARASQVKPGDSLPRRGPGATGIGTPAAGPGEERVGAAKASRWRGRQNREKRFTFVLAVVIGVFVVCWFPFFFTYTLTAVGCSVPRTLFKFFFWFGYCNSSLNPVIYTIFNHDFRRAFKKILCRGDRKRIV
# From the text: (§2) Other receptors: Cell membranes expressing human dopamine D1, D2, D4 and rat D3 receptors were purchased through BioSignal, Inc. (Montreal, Canada). Binding assays using the histamine H1 receptor; dopamine receptors; and α1A, α1E, and α2 adrenergic receptors may be carried out according to the procedures described in U.S. Patent No. 5,780,485, the disclosure of which is hereby incorporated by reference in its entirety into this application. Binding assays using the dopamine D5 receptor may be carried out according to the procedures described in U.S. Patent No. 5,882,855, the disclosure of which is hereby incorporated by reference in its entirety into this application. Binding assays for the human α1D adrenergic receptor may be carried out according to the procedures described in U.S. Patent No. 6,156,518, the disclosure of which is hereby incorporated by reference in its entirety into this application.
# as §1
# human 5HT1E = target: T2, human 5HT1E (Homo sapiens, UniProt P28566); test: Radioligand binding, 5HT1E receptor ([3H]-serotonin)
# T2 construct: expressed in transfected cells
# T2 sequence (P28566 whole entry): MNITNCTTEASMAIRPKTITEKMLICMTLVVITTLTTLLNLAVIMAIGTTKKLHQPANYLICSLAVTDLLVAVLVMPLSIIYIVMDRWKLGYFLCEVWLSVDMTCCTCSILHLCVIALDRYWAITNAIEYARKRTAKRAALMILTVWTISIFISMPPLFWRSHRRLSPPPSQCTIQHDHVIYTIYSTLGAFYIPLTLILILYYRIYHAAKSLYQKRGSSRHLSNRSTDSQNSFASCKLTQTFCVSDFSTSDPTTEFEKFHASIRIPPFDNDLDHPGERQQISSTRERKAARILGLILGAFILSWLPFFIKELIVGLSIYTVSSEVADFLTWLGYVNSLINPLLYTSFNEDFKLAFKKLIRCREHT
# Description: Human 5HT1B, 5HT1D, 5HT1E, 5HT1F, and 5HT7 Receptors: The cell lysates of LM(tk-) clonal cell line stably transfected with the genes encoding each of these 5HT receptor-subtypes were prepared as described above. Cell membranes were suspended in 50mM Tris-HCl buffer (pH 7.4 at 37°C) containing 10 mM MgCl2, 0.2 mM EDTA, 10 µM pargyline, and 0.1% ascorbate. […] Nonspecific binding was determined in the presence of 10 µM serotonin. The bound radioligand was separated by filtration through GF/B filters using a cell harvester.
# as §1
# human α1A adrenoceptor = target: T3, human α1A adrenoceptor (Homo sapiens, UniProt P35348); test: Radioligand binding, α1A adrenergic receptor
# T3 construct: expressed in transfected cells
# T3 sequence (P35348 1-466): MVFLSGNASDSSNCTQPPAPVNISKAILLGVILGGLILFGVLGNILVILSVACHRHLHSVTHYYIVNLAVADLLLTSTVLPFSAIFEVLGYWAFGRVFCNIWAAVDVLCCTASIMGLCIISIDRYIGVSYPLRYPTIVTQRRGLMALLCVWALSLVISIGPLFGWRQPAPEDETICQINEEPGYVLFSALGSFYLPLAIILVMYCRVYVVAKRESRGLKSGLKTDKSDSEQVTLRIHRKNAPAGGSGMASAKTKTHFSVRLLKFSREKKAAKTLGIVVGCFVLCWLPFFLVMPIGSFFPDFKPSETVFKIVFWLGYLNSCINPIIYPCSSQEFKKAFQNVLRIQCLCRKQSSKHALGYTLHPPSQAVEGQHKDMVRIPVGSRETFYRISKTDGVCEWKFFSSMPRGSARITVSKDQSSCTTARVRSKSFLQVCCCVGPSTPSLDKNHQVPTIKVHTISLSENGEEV
# From the text: as §2, §1
# human α1B adrenoceptor = target: T4, human α1B adrenoceptor (Homo sapiens, UniProt P35368); test: Radioligand binding, α1B adrenergic receptor
# T4 construct: expressed in transfected cells
# T4 sequence (P35368 1-520): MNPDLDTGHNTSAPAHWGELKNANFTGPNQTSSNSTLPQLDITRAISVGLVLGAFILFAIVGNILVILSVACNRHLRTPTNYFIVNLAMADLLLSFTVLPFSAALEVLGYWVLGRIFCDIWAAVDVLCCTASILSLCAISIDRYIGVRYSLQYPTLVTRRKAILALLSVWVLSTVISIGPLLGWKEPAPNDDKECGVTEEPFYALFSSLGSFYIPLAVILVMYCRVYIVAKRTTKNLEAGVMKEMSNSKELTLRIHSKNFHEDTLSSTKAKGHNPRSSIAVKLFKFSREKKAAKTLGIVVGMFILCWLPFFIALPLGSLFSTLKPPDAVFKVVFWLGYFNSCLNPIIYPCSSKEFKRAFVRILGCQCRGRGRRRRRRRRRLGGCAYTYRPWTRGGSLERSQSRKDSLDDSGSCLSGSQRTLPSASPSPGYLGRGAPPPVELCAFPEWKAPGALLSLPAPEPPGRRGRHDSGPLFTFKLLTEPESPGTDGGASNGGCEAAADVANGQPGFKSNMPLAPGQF
# dopamine D5 receptor = target: T5, dopamine D5 receptor (Homo sapiens, UniProt P21918); test: Radioligand binding, dopamine D5 receptor
# T5 construct: expressed in transfected cells
# T5 sequence (P21918 whole entry): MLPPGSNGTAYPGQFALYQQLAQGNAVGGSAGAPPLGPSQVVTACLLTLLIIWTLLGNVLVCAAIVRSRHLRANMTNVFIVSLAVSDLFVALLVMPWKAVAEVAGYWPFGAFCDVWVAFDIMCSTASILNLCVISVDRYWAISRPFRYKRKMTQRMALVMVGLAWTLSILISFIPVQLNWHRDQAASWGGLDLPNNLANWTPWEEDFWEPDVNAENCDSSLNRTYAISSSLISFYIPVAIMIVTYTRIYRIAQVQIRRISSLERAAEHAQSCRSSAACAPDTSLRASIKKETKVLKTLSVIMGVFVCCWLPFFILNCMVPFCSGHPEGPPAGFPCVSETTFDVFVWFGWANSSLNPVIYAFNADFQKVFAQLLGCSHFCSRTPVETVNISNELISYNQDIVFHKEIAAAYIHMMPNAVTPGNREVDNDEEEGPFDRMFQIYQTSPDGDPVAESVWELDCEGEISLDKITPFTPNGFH
# From the text: as §2, §1
# Chain of 5HT transporter (P31652 whole entry): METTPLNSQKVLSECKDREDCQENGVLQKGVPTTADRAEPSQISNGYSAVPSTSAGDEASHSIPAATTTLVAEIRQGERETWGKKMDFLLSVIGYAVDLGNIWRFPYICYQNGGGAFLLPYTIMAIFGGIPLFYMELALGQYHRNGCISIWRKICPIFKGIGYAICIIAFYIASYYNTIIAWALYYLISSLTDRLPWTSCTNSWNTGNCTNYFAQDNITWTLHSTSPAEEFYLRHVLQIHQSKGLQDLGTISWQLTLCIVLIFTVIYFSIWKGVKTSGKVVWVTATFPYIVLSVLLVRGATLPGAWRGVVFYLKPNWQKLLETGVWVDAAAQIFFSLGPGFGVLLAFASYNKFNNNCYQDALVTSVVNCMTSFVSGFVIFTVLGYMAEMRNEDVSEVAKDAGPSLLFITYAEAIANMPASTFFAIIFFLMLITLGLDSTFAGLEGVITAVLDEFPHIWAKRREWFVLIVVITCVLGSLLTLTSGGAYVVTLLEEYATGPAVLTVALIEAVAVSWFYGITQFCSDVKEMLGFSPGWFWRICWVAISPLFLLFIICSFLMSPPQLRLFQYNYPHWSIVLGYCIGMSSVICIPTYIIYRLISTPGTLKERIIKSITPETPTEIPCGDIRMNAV
smiles,measurement,setting,value
Cc1ccc(Nc2cc(N3CCCCC3)nc(N(C)CCc3c[nH]c4ccccc34)n2)cc1 [Example 11],Ki,"5HT transporter; Table 7, native transporter, head prints r (rat), read-out: r5HT Uptk Ki",1590 nM
same,selectivity ratio r5HT Uptk,"5HT transporter; Table 8, Ki r5HT Uptk divided by Ki hGAL3",18
same,Ki,"human α2A adrenoceptor; Table 9, read-out: hα2A Ki",1820 nM
same,selectivity ratio hα2A,"human α2A adrenoceptor; Table 10, Ki hα2A divided by Ki hGAL3",20
same,Ki,"human 5HT1E; Table 7, read-out: h5HT1E Ki",9170 nM
same,selectivity ratio h5HT1E,"human 5HT1E; Table 8, Ki h5HT1E divided by Ki hGAL3",>100
same,Ki,"human α1A adrenoceptor; Table 9, read-out: hα1A Ki",926 nM
same,selectivity ratio hα1A,"human α1A adrenoceptor; Table 10, Ki hα1A divided by Ki hGAL3",10
same,Ki,"human α1B adrenoceptor; Table 9, read-out: hα1B Ki",1440 nM
same,selectivity ratio hα1B,"human α1B adrenoceptor; Table 10, Ki hα1B divided by Ki hGAL3",16
same,Ki,"dopamine D5 receptor; Table 9, read-out: hD5 Ki",64 nM
same,selectivity ratio hD5,"dopamine D5 receptor; Table 10, Ki hD5 divided by Ki hGAL3",0.7
